Experimental data published in paper PMC9428149, “Tackling recalcitrant Pseudomonas aeruginosa infections in critical illness via anti-virulence monotherapy” (Nature Communications, 2022).

How the values were obtained:
[1] = test system: pyocyanin production in PA14; assay: Pyocyanin production assay; conditions: PA14; 50µM of each inhibitor (method says 10 μM); vs vehicle
[2] = test system: pqsA promoter (PA14 PpqsA-GFPASV); assay: pqsA-GFP reporter expression; assay type: cell-based, Pseudomonas aeruginosa; conditions: PA14 PpqsA-GFPASV; 50µM per b210 (method b76 says 10 µM)
Experimental: The expression levels of pqsA, which is representative of the pqsABCDE operon transcription, were monitored in the presence of the MvfR inhibitors using PA14 cells containing the PpqsA-GFPASV, a reporter construct of the pqsA promoter fused to a short half-life GFP gene in, such that quantitative quenching of fluorescence corresponds to pqsA promoter repression[22],[32],[48]. […] GFP fluorescence levels were measured at λex = 485 nm/λem = 535 nm after 10 seconds of shaking every 15 min up to 12 h. The IC50 of PpqsA-GFP expression levels was performed as above using the same 13 different concentrations (0.0122–50 μM) for each of the 13 compounds tested.

[3] = test system: MvfR-regulated small molecules in PA14; assay: Production of HAQs, 2-AA, DHQ and AA in PA14 cultures (LC-MS); conditions: PA14, 50µM inhibitor; for % Production AA: anthranilic acid, precursor control

| SMILES | % Production Pyocyanin [1] | % Production pqsA-GFP [2] | % Production 2-AA [3] | % Production DHQ [3] | % Production HHQ [3] | % Production HQNO [3] | % Production PQS [3] | % Production AA [3] |
| --- | --- | --- | --- | --- | --- | --- | --- | --- |
| Cc1cc(F)ccc1NCC(=O)Nc1ccccc1Br [D2] | 101% | 96% | – | – | – | – | – | – |
| CCc1ccccc1NCC(=O)Nc1ccc(C#N)cc1 [D3] | 97% | 92% | – | – | – | – | – | – |
| Cc1cc(F)ccc1NCC(=O)Nc1ccc(N2CCOCC2)cc1 [D5] | 102% | 100% | – | – | – | – | – | – |
| N#Cc1ccc(NC(=O)CNc2cccc(F)c2)cc1 [D6] | 91% | 68% | – | – | – | – | – | – |
| Cc1cc(F)ccc1NCC(=O)Nc1ccc(Br)cc1C [D7] | 89% | 70% | – | – | – | – | – | – |
| Cc1cc(F)ccc1NCC(=O)Nc1ccc(N2CCCC2=O)cc1 [D9] | 107% | 105% | – | – | – | – | – | – |
| Cc1cc(F)ccc1NCC(=O)Nc1cc(F)ccc1F [D10] | 90% | 89% | – | – | – | – | – | – |
| Cc1ccc(NC(=O)CNc2ccc(F)cc2C)c(Br)c1 [D12] | 108% | 92% | – | – | – | – | – | – |
| Cc1cc(F)ccc1NCC(=O)Nc1cccc(C#N)c1 [D13] | 100% | 90% | – | – | – | – | – | – |
| Cc1cc(F)ccc1NCC(=O)Nc1cccc([N+](=O)[O-])c1 [D14] | 85% | 77% | – | – | – | – | – | – |
| COc1ccc(NC(=O)CNc2ccc(F)cc2C)cc1 [D15] | 102% | 87% | – | – | – | – | – | – |
| N#Cc1ccc(NC(=O)CNc2ccc(Cl)cc2)cc1 [D16] | 43% | 18% | – | – | – | – | – | – |
| Cc1ccc(F)cc1NCC(=O)Nc1ccc(C#N)cc1 [D18] | 69% | 28% | – | – | – | – | – | – |
| Cc1cc(F)ccc1NCC(=O)Nc1ccc(C(=O)N(C)C)cc1 [D19] | 109% | 100% | – | – | – | – | – | – |
| Cc1ccc(NC(=O)CNc2ccc(F)cc2C)c(C)c1 [D21] | 113% | 87% | – | – | – | – | – | – |
| Cc1cc(F)ccc1NCC(=O)Nc1cccc(Cl)c1 [D22] | 96% | 71% | – | – | – | – | – | – |
| N#Cc1ccc(NCC(=O)Nc2ccc(F)cc2)cc1 [D24] | 59% | 26% | – | – | – | – | – | – |
| N#Cc1ccc(NC(=O)CNc2ccccc2F)cc1 [D25] | 97% | 84% | – | – | – | – | – | – |
| Cc1ccc(NCC(=O)Nc2ccc(C#N)cc2)cc1F [D28] | 60% | 42% | – | – | – | – | – | – |
| CC(=O)c1ccccc1NC(=O)CNc1ccc(F)cc1C [D30] | 91% | 94% | – | – | – | – | – | – |
| Cc1cc(NC(=O)CNc2ccc(F)cc2C)ccc1Br [D31] | 69% | 47% | – | – | – | – | – | – |
| COc1cccc(NC(=O)CNc2ccc(F)cc2C)c1 [D32] | 92% | 94% | – | – | – | – | – | – |
| CC(C)c1ccc(NCC(=O)Nc2ccc(C#N)cc2)cc1 [D33] | 59% | 53% | – | – | – | – | – | – |
| N#Cc1ccc(NC(=O)CCNc2ccc(F)cc2)cc1 [D34] | 91% | 80% | 113% | 100% | 97% | 96% | 97% | 101% |

| SMILES | % Production Pyocyanin [1] | % Production pqsA-GFP [2] | % Production 2-AA [3] | % Production DHQ [3] | % Production HHQ [3] | % Production HQNO [3] | % Production PQS [3] | % Production AA [3] |
| --- | --- | --- | --- | --- | --- | --- | --- | --- |
| N#Cc1ccc(NC(=O)CC(=O)Nc2ccc(F)cc2)cc1 [D36] | 16% | 10% | 37% | 68% | 57% | 59% | 47% | 187% |
| N#Cc1ccc(NC(=O)C(=O)Nc2ccc(F)cc2)cc1 [D37] | 106% | 97% | 103% | 105% | 98% | 99% | 110% | 90% |
| Cc1cc(F)ccc1N1CCCC(NC(=O)c2ccc(C#N)cc2)C1 (stereo not shown) [D38] | 108% | 90% | 101% | 84% | 98% | 100% | 96% | 54% |
| Cc1cc(F)ccc1CCNC(=O)c1ccc(C#N)cc1 [D39] | 110% | 91% | 106% | 96% | 96% | 102% | 93% | 68% |
| Cc1cc(F)ccc1NC(=O)Cc1ccc(C#N)cc1 [D40] | 115% | 96% | 113% | 85% | 102% | 109% | 100% | 81% |
| N#Cc1ccc(NC(=O)CCC(=O)Nc2ccc(F)cc2)cc1 [D47] | 99% | 78% | 100% | 100% | 95% | 93% | 94% | 42% |
| Cc1cc(F)ccc1NC(=O)CC(=O)Nc1ccc(C#N)cc1 [D48] | 60% | 44% | 77% | 91% | 96% | 94% | 90% | 59% |
| Nc1cc([N+](=O)[O-])ccc1NC(=O)CC(=O)Nc1ccc(Oc2ccccc2)cc1 [D60] | 6% | – | – | – | – | – | – | – |
| N#Cc1ccc(NC(=O)CC(=O)Nc2cccc(F)c2)cc1 [D72] | 30% | – | – | – | – | – | – | – |
| N#Cc1ccc(NC(=O)CC(=O)Nc2cccc(C#N)c2)cc1 [D75] | 49% | – | – | – | – | – | – | – |
| N#Cc1ccc(NC(=O)CC(=O)c2ccc(F)cc2)cc1 [D76] | 77% | – | – | – | – | – | – | – |
| N#Cc1ccc(NC(=O)CC(=O)Nc2ccc(C#N)cn2)cc1 [D78] | 14% | – | – | – | – | – | – | – |
| N#Cc1ccc(/C=C/C(=O)Nc2ccc(C#N)cc2)cc1 [D83] | 114% | – | – | – | – | – | – | – |
| N#Cc1ccc(NC(=O)CC(=O)Cc2ccc(F)cc2)cc1 [D84] | 102% | – | – | – | – | – | – | – |
| N#Cc1ccc(NC(=O)C=CC(=O)Nc2ccc(F)cc2)cc1 [D86] | 88% | – | – | – | – | – | – | – |
| N#Cc1ccc(NC(=O)CC(O)Cc2ccc(F)cc2)cc1 (stereo not shown) [D89] | 95% | – | – | – | – | – | – | – |
| N#Cc1ccc(NC(=O)CC(=O)Nc2ccc(C#N)nc2)cn1 [D91] | 43% | 39% | – | – | – | – | – | – |
| N#Cc1ccc(NC(=O)CC(=O)Nc2ccc(Oc3ccccc3)cc2)c(N)c1 [D92] | 4% | 1% | – | – | – | – | – | – |
| N#Cc1ccc(NC(=O)CC(Nc2ccc(Oc3ccccc3)cc2)C(F)(F)F)cc1 (stereo not shown) [D93] | 91% | 88% | – | – | – | – | – | – |
| CC(F)(C(=O)Nc1ccc(C#N)cc1)C(=O)Nc1ccc(C#N)cc1 [D94] | 52% | 85% | – | – | – | – | – | – |
| N#Cc1ccc(NC(=O)C(F)C(=O)Nc2ccc(C#N)cc2)cc1 [D96] | 34% | 42% | – | – | – | – | – | – |
| N#Cc1ccc(NC(=O)C(F)(F)C(=O)Nc2ccc(C#N)cc2)cc1 [D97] | 94% | 95% | – | – | – | – | – | – |
| O=C(CC(=O)Nc1ccc(C(F)(F)F)cc1)Nc1ccc(Oc2ccccc2)cc1 [D98] | 42% | 29% | – | – | – | – | – | – |
